Experimental data published in article PMC6100415, “Hepatic Metabolism of Sakuranetin and Its Modulating Effects on Cytochrome P450s and UDP-Glucuronosyltransferases” (Molecules : A Journal of Synthetic Chemistry and Natural …, 2018).
Read-outs that look alike come from different tables or passages of the source.

Key:
Format in all cases: in vitro ADME
[1] = molecular target: T1, CYP2B6 (Homo sapiens, UniProt P20813); assay: CYP inhibition in human liver microsomes, bupropion hydroxylation (BPHY); details: pH 7.4, probe bupropion (hydroxylation, BPHY)
T1 sequence (P20813 1-491): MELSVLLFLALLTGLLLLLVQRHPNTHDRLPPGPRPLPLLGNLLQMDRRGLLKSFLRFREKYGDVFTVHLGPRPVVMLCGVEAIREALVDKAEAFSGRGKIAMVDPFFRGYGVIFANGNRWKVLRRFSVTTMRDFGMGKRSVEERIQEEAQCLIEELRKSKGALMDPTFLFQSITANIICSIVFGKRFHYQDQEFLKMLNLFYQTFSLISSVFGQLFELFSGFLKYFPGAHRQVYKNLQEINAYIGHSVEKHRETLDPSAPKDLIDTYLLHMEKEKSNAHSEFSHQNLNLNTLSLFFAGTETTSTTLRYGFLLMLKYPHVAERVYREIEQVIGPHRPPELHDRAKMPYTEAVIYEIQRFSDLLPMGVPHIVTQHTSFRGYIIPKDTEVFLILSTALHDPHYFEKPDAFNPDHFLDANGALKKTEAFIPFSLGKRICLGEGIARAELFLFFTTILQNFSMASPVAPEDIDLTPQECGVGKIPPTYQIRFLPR
Source text: (§1) The DAD was set at 280 nm.

[2] = molecular target: T2, UGT1A6 (Homo sapiens, UniProt P19224); assay: UGT inhibition in human liver microsomes, 1-naphthol β-D-glucuronidation (NPG); details: pH 7.4, probe 1-naphthol (200 μM)
T2 construct: The typical incubation mixture contained human liver microsomes (0.5 mg/mL) along with SKN (10 μM); tissue BD Gentest; host or cells: human liver microsomes
T2 sequence (P19224 27-532): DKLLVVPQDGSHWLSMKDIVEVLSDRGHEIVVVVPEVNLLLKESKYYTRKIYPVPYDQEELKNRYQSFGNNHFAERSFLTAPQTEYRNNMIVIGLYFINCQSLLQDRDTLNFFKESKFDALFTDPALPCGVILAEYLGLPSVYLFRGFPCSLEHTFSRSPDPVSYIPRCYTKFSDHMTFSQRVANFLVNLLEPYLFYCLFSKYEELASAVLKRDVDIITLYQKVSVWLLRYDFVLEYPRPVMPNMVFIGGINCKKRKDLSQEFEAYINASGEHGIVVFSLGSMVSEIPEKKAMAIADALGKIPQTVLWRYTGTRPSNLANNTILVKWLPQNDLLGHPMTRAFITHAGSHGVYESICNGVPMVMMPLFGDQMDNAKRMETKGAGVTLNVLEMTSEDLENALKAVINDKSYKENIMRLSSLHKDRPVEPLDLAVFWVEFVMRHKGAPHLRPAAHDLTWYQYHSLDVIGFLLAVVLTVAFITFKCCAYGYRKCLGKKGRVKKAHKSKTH
Method: (§2) The formation of a glucuronide conjugate from an isozyme-specific substrate (200 μM, Table 5) was examined to determine UGT activity levels in human liver microsomes. The typical incubation mixture contained human liver microsomes (0.5 mg/mL) along with SKN (10 μM), and MgCl2 (10 mM) in 50 mM Tris-HCl buffer (pH 7.4). The metabolic reaction was initiated by adding UPDGA (2 mM) and stopped by adding an equal volume of ice-cold methanol. […] The conditions used for the operation and analysis of the HPLC-DAD and LC-ESI-MS are provided in the Supplementary Materials and Table S3.
(§3) The solvent flow rate was set at 0.2 mL/min, and the column temperature was set at 35 °C. The LTQ instrument was operated in negative ion electron spray mode at an ion spray voltage of −4.2 kV and a source temperature of 275 °C. The sheath gas flow rate was 35 arb, and the aux gas flow rate was 5 arb. The MS conditions used to detect glucuronides via selected ion monitoring scan mode are summarized in Supplementary Materials Table S3.

[3] = molecular target: T3, UGT2B7 (Homo sapiens, UniProt P16662); assay: UGT inhibition in human liver microsomes, zidovudine 5′-glucuronidation (AZTG); details: pH 7.4, probe zidovudine (200 μM)
T3 construct: The typical incubation mixture contained human liver microsomes (0.5 mg/mL) along with SKN (10 μM); tissue BD Gentest; host or cells: human liver microsomes
T3 sequence (P16662 24-529): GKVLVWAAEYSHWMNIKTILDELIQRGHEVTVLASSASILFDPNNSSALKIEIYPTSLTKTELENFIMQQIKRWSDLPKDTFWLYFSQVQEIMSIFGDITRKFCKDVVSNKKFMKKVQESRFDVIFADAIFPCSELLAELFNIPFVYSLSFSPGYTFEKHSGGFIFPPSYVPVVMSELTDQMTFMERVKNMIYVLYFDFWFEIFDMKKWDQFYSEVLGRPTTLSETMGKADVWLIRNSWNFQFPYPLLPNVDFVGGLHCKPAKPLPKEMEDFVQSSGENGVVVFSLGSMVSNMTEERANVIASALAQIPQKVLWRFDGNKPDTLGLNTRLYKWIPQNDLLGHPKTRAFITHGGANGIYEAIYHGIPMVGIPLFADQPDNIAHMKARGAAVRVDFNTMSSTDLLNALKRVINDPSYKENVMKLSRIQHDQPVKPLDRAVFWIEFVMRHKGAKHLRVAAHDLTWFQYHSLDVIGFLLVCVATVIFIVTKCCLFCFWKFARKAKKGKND
Method: as §2, §3

[4] = molecular target: T4, UGT1A4 (Homo sapiens, UniProt P22310); assay: UGT inhibition in human liver microsomes, trifluoperazine N-glucuronidation (TFPG); details: pH 7.4, probe trifluoperazine (200 μM)
T4 construct: The typical incubation mixture contained human liver microsomes (0.5 mg/mL) along with SKN (10 μM); tissue BD Gentest; host or cells: human liver microsomes
T4 sequence (P22310 29-534): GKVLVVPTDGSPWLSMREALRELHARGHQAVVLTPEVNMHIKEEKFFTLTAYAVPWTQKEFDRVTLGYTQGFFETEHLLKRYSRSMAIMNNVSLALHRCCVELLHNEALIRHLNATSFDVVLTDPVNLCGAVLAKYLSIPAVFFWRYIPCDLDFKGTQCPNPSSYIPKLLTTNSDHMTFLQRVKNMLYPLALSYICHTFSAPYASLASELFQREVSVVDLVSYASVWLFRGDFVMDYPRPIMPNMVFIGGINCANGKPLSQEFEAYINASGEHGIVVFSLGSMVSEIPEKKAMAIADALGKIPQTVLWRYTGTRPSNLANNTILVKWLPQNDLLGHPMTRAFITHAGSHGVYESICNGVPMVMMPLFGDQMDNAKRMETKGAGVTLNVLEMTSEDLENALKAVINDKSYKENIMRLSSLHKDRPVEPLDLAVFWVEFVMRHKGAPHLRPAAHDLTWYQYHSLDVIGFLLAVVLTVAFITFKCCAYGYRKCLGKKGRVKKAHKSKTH
Method: as §2, §3

[5] = molecular target: CYP3A4 (Homo sapiens, UniProt P08684); assay: CYP inhibition in human liver microsomes, testosterone 6β-hydroxylation (TSTHY); details: pH 7.4, probe testosterone (6β-hydroxylation, TSTHY)
Source text: as §1

[6] = human liver microsomes, 200 µM, inhibitor 10 M [sic], human liver microsomes 0.5 mg/mL, read-out: Inhibition (%)
[7] = inhibitor 10 µM, human liver microsomes 0.5 mg/mL, read-out: Inhibition (%)
[8] = liver microsomes, 200 μM, SKN 10 μM, 15 min pre-incubation, read-out: % Inhibition in Pre-Incubation
[9] = liver microsomes, 200 μM, SKN 10 μM, human liver microsomes, read-out: % Inhibition in Co-Incubation
[10] = SKN 10 μM, 15 min pre-incubation, read-out: % Inhibition in Pre-Incubation
[11] = SKN 10 μM, read-out: % Inhibition in Co-Incubation

CYP3A4, sequence (P08684 whole entry): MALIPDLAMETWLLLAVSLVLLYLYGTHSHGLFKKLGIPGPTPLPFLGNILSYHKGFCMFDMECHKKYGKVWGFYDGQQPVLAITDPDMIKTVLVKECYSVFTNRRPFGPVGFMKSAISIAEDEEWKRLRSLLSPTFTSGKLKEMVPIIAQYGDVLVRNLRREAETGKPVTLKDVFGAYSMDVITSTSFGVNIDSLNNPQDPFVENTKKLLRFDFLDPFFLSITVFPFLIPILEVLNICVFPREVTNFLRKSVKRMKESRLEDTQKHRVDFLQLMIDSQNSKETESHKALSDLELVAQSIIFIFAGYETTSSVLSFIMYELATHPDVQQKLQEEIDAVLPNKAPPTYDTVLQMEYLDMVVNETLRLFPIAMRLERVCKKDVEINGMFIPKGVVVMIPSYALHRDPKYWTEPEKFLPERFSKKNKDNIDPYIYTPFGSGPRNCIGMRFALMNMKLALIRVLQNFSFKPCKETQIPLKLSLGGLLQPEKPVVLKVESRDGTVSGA

inhibition at 60 min, 10 µM [1, 6] [%]	inhibition at 10 μM [2, 7] [%]	inhibition at 10 μM [3, 7] [%]	inhibition at 10 μM [4, 7] [%]	inhibition at 60 min, 10 µM [5, 6] [%]	inhibition at 60 min, 10 µM [1, 8] [%]	inhibition at 60 min, 10 µM [1, 9] [%]	inhibition at 10 μM [2, 10] [%]	inhibition at 10 μM [2, 11] [%]	inhibition at 10 μM [3, 10] [%]	inhibition at 10 μM [3, 11] [%]	inhibition at 10 μM [4, 10] [%]	inhibition at 10 μM [4, 11] [%]	inhibition at 60 min, 10 µM [5, 8] [%]	inhibition at 60 min, 10 µM [5, 9] [%]	SMILES
24 ± 2.2	4.1 ± 3.1	6 ± 2.2	9.6 ± 3.1	39.6 ± 2.2											O=C1C[C@@H](c2ccc(O)cc2)Oc2cc(O)cc(O)c21 [Naringenin]
					0.8 ± 0.2	-0.6 ± 0.9	10.1 ± 1.2	2 ± 0.6	12.6 ± 2.8	15.6 ± 0.6	8.7 ± 1.4	15.3 ± 3.8	12.6 ± 2.8	15.6 ± 0.6	COc1cc(O)c2c(c1)OC(c1ccc(O)cc1)CC2=O (racemic) [SKN, (+/−) 7-O-methylnaringenin]
16.1 ± 0.9	1.9 ± 2.7	8.2 ± 1.4	13.7 ± 3.8	3.2 ± 0.7											O=C1C[C@@H](c2ccc(O)c(O)c2)Oc2cc(O)cc(O)c21 [Eriodictyol, 3′-hydroxynaringenin]
